BindingDB's records for doi:10.1021/jm960728j (Uppsala University, 1997)

Molecular target: T1, Dimer of Gag-Pol polyprotein [489-587] (Human immunodeficiency virus 1, UniProt P12497)
T1 construct: 489-587
Experiment: Protease Inhibition Assay
Details: pH 5.5; 37 °C
Source text: The IC50 value is the inhibitor concentration that results in 50% of HIV-1 protease activity measured by a spectrophotometric assay using a chromophoric peptide.

**Q.** `O=C1N(Cc2ccc(CO)cc2)[C@H](Cc2ccccc2)[C@H](O)[C@@H](O)[C@@H](Cc2ccccc2)N1Cc1ccc(CO)cc1` [(4R,5S,6S,7R)-4,7-dibenzyl-5,6-dihydroxy-1,3-bis({[4-(hydroxymethyl)phenyl]methyl})-1,3-diazepan-2-one] was tested. Which Ki did it give?
**A.** < 1 nM

**Q.** With `O=C1N(Cc2ccc(CO)cc2)[C@H](COc2ccccc2)[C@H](O)[C@@H](O)[C@@H](COc2ccccc2)N1Cc1ccc(CO)cc1` [(4R,5S,6S,7R)-5,6-dihydroxy-1,3-bis({[4-(hydroxymethyl)phenyl]methyl})-4,7-bis(phenoxymethyl)-1,3-diazepan-2-one] as the compound, how does the Ki read?
**A.** < 1 nM
